21 compounds from ChEMBL document CHEMBL1140021, “Ferulic acid and benzothiazole dimer derivatives with high binding affinity to beta-amyloid fibrils” (Bioorg Med Chem Lett, 2007) can be followed below.

Bounds are passed on as bounds.

The experiment can be described thus: Displacement of [125I]TZDM from human beta amyloid fibril 1-42. (Displacement assays read how much labelled ligand stays bound in the presence of the test substance.)

One may read the Ki as the equilibrium dissociation constant of an inhibitor or competing ligand from its target. A lower Ki goes with higher affinity. `Fc1ccc2nc(NCCNc3nc4ccc(F)cc4s3)sc2c1` registered a Ki of 0.75 nM. The compound `COc1cc(/C=C/C(=O)O)ccc1N1CCN(c2ccc(/C=C/C(=O)O)cc2OC)CC1` showed an inhibition constant (Ki) of 1.36 nM. With `CN(CCN(C)c1nc2ccc(F)cc2s1)c1nc2ccc(F)cc2s1` the figure was 1.37 nM; with `COc1cc(/C=C/C(=O)O)ccc1N(C)CCN(C)c1ccc(/C=C/C(=O)O)cc1OC`, 0.72 nM.

Compound `COc1cc(/C=C/C(=O)O)ccc1OCCOc1ccc(/C=C/C(=O)O)cc1OC` gave a Ki of 0.6 nM. In the case of `Nc1ccc2nc(NCCNc3nc4ccc(N)cc4s3)sc2c1` it was 0.69 nM; in that of `COc1cc(/C=C/C(=O)O)ccc1OCCOc1ccc(N(CC(=O)O)CC(=O)O)cc1OC`, 0.57 nM; in that of `Cc1ccc2nc(NCCNc3nc4ccc(C)cc4s3)sc2c1`, 0.81 nM. In the case of `CN(CCN(C)c1nc2ccccc2s1)c1nc2ccccc2s1` it was 0.53 nM. `CS(=O)(=O)c1ccc2nc(NCCNc3nc4ccc(S(C)(=O)=O)cc4s3)sc2c1` had a Ki above 10 nM. With `CN(CCN(C)c1nc2ccc(S(C)(=O)=O)cc2s1)c1nc2ccc(S(C)(=O)=O)cc2s1` the figure was 0.55 nM. Consider `CN(CCN(C)c1nc2ccc(N)cc2s1)c1nc2ccc(N)cc2s1`, for which the Ki was 0.69 nM. With `Cc1ccc2nc(N(C)CCN(C)c3nc4ccc(C)cc4s3)sc2c1` the figure was 0.61 nM; with `c1ccc2sc(NCCNc3nc4ccccc4s3)nc2c1`, 0.71 nM; with `COc1cc(/C=C/C(=O)O)ccc1O` [FERULATE], 0.77 nM.

As to `Brc1ccc2nc(NCCNc3nc4ccc(Br)cc4s3)sc2c1`, the inhibition constant Ki came out at 1.11 nM. For the compound `CN(CCN(C)c1nc2ccc(Br)cc2s1)c1nc2ccc(Br)cc2s1`, the affinity, expressed as Ki, was 0.55 nM. Take `COc1cc(/C=C/C(=O)O)ccc1OCCOc1ccc(N(C)C)cc1OC`: the Ki came to 1 nM.

In turn, `Clc1ccc2nc(NCCNc3nc4ccc(Cl)cc4s3)sc2c1` returned an inhibition constant (Ki) of 0.96 nM.

Consider `[11CH3]Nc1ccc(-c2nc3ccc(O)cc3s2)cc1` [PITTSBURGH COMPOUND B], for which the affinity, expressed as Ki, was 0.77 nM. With `CN(CCN(C)c1nc2ccc(Cl)cc2s1)c1nc2ccc(Cl)cc2s1` the figure was 0.64 nM.
